Source: patent publication US9962403B2, “Formulation drug of sodium ion and calcium ion for treating cancer, tumor and nonmalignancy” (priority 2011, dated 2018)
Read-outs that look alike come from different tables or passages of the source.

How the values were obtained:
[1] = for toxicity of high concentration solutions injected intramuscularly: paralysis of legs, cardiovascular and pulmonary failure, death
Protocol: First, potential roles of Na^+, K^+, Ca^2+ and Mg^2+ in treatment of tumor and cancer were tested. In vivo experiments in BALB/c mice were performed. High concentration solutions of Na^+, K^+, Ca^2+ and Mg^2+ were injected intramuscularly. […] Experiments were focused on high concentrations of Na^+ and Ca^2+ solutions.
At the beginning, in vivo toxicity of high concentrations of Na^+, Ca^2+, K^+, and Mg^2+ in BALB/c mice was examined.
BALB/c mice were housed and inbreeded in the contracted university animal facilities that was in accordance with the NIH regulation. Body weight of the BALB/c mice at the experiment was 30±g. The toxicity test was performed using intramuscular injection with 0.2ml of 35% NaCl, 35% CaCl2, 34% KCl or 35% MgCl2 in a mouse, respectively.
In total, 20 BALB/c mice (10 males and 10 females) were randomly divided into 5 groups, with 4 mice in each group.

tumors = experiment: Earlier intratumoral injection of arsenic; type: in vivo, mice
Text: An occasional opportunity sparked this invention. […] One day, the inventor went shopping in a Chinese supermarket and bought a dozen salted duck eggs. On the way back home, […] wondered why these salted duck eggs could be preserved at room temperature for years without rotting. The answer is that proteins and yolks in salted duck eggs are coagulated or clotted by high concentration of salt (sodium chloride), in particular by high concentration of sodium ions. The inventor linked this phenomenon to cell biology, cell physiology, membrane potential, ion science and cancer treatment, and presumed that high concentrations of sodium chloride might coagulate or clot proteins in cancer cells like what occurs in salted duck eggs.

[2] = system: MCA207 mouse sarcoma, MC38 mouse colorectal cancer and B16F1 mouse melanoma; conditions: for occurrence of tumor necrosis: high concentrations, evaluated 24, 48 and 72 hours after treatment; for average necrosis of all treated tumors: 48 hours
Text: Three animal tumor models of MCA207 mouse sarcoma, MC38 mouse colorectal cancer and B16F1 mouse melanoma were established in C57BL6 mice. The treatment of intratumoral injection started when tumors reached 8mm×8mm in size.
Thirty-six C57BL6 tumor mice were randomly divided into three groups according to tumor types (12 animals in each group). Then, animals in each group were further divided into 4 subgroups (3 tumor mice in each subgroup). Tumor animals in subgroup-1, as the control, were treated by intratumoral injection with 0.1ml of normal saline. Tumor animals in subgroup-2 were treated by intratumoral injection with 0.1ml of various concentrations of sodium chloride solution.
Twenty-four, 48 and 72 hours after treatment, experimental results were evaluated by measuring the dimension of necrotic area of the treated tumors using a ruler.

[3] = system: 18 types of human cancer cell lines; experiment: Ex vivo killing test in tissue culture (Trypan blue exclusion or flow cytometry); type: cell-based
Protocol: Tumor cells were cultured in DMEM or RPMI1640 medium supplemented with 10% fetal bovine serum (FCS). The medium in the control group was free of the “medicinal ion bomb” solution. […] Mortality of cancer cells was evaluated by Trypan blue exclusion test or flow cytometry.
The role of the “medicinal ion bomb” in killing cancer cells was tested in tissue culture. Cancer cells were seeded in Petri dish using DMEM or RPMI1640 medium supplemented with 10% FCS. Each type of cancer cell line was prepared at 2×10^6 cells/ml in a 5ml plastic tube. […] Three to five minutes later, 0.5% Trypan Blue was added and mixed with the cell suspension for 2 minutes. The number of dead cancer cells was counted under an inverted microscope. Selected samples of treated cancer cell suspension for flow cytometer were prepared in phosphate-buffered saline (PBS) and mortality of cells was assayed using flow cytometer (Beckman Coulter Inc., CA).

[4] = system: MCF7 human breast cancer cells; experiment: Fluorescent labeled Na+/Ca2+ probe technique, influx and death of cancer cells; type: cell-based
Text: Fluorescent labeled ion probe technique was used in study of the influx of Na^+ and Ca^2+ from the extracellular fluid into intracellular fluid of cancer cells.

multiple glomus tumors = conditions: 23.4% solution; 4 sessions of intralumenal injection in 6 months; one patient; cited from earlier work
liver tumor = conditions: 36.5% hypertonic saline; cited from earlier work
[5] = 0.2ml of 35% NaCl, 35% CaCl2, 34% KCl or 35% MgCl2, mouse 30 g

Q: Which “outcome of animals after intramuscular injection” value (shortened to “outcome of animals”) [1, 5] does the source give for `[Cl-].[K+]` [KCl] here?
A: The value was “died from cardiopulmonary failure 3 hours after treatment”.

Q: And the “toxicity of high concentration solutions injected intramuscularly” value [1]?
A: Its value is “toxic”.

Q: Which “outcome of animals” value ([1]; mouse, in vivo) does the source give for `[Cl-].[Cl-].[Mg+2]` [MgCl2] here?
A: Its value is “not well absorbed”.

Q: What about the “toxicity of high concentration solutions injected intramuscularly” value [1] of the same compound?
A: Its value is “toxic”.

Q: Which treatment outcome (tumors) does the source give for `[AsH3]` [arsenic] here?
A: The treatment outcome was “did not work well”.

Q: For `[Ca+2].[Cl-].[Cl-]` [calcium chloride solution, calcium chloride], which “maximal effective treatment concentration” value ([2]; Ca2+ alone or in combination, intratumoral injection, room temperature) is on record?
A: The value was 6.0 M.

Q: What about the “local toxicity at the injection site” value ([2]; high concentration of calcium chloride solution) of the same compound?
A: Its value is “toxic that causes unhealed wound at the injection site”.

Q: What about the “occurrence of tumor necrosis” value [2] of the same compound?
A: Its value is “necrosis occurred in all tumors”.

Q: What about the “necrosis of treated tumors” value ([2]; single intratumoral injection 0.1 ml of 250 mM, 1.0 M, 1.5 M, 2.0 M and 3.0 M, 48 hours posttreatment) of the same compound?
A: The value was “coagulating necrosis of all treated tumors”.

Q: What about the “effect of tissue culture medium containing 250 mM of Ca2+” value [3] of the same compound?
A: The value was “induced sickness, apoptosis and death”.

Q: And the “outcome of animals” value ([1]; 0.2ml of 17.5% CaCl2)?
A: The value was “survived the experiment”.

Q: What about the “outcome of animals” value [1, 5] of the same compound?
A: Its value is “died in 3 hours after treatment”.

Q: And the “effect of Ca2+ solutions on cancer cells” value ([4]; 250 mM, 1.0 M, 1.5 M, 2.0 M and 3.0 M, Ca2+ probe fluorescence microscopy)?
A: The value was “immediate sickness or death of cancer cells”.

Q: Which “average necrosis of all treated tumors” value ([2]; 3.0 M solution) does the source give for `[Cl-].[Na+]` [sodium chloride solution, sodium chloride] here?
A: The value was 30%±10.

Q: What about the “minimal effective treatment concentration” value ([2]; Na+ alone or in combination, intratumoral injection, room temperature, listed as Na^+ solution) of the same compound?
A: The value was 2.0 M.

Q: What about the “occurrence of tumor necrosis” value [2] of the same compound?
A: Its value is “necrosis occurred in all tumors”.

Q: What about the “average necrosis of all treated tumors” value ([2]; single intratumoral injection 0.1 mL of 5.0479 M solution) of the same compound?
A: The value was 90%± 5.

Q: What about the “average necrosis of all treated tumors” value ([2]; single intratumoral injection 0.1 mL of 5.0479 M solution, listed as Na^+ solution) of the same compound?
A: The value was 90%±5.

Q: What about the treatment outcome (multiple glomus tumors) of the same compound?
A: The treatment outcome was “did not result in successful treatment”.

Q: What about the treatment outcome (liver tumor) of the same compound?
A: The treatment outcome was “none of the tumors were successfully treated”.

Q: What about the “outcome of animals” value [1, 5] of the same compound?
A: Its value is “survived the experiment”.

Q: And the “time to kill MCF7 cells” value ([4]; 5.0479 M of Na+ solution alone)?
A: The value was 20 ± 4 s.
